Source: PubChem BioAssay AID2060891 (Molecular Pharmacology Branch, DTP, NCI, 2025)
pIC50: −log10 of the molar value.

System: K98450-129-R-PDC complex spheroid growth, percent test/control
Assay: Anticancer human tumor K98450-129-R-PDC patient-derived colon adenocarcinoma cell line growth inhibition [RAS]
Conditions: for pIC50: curve of first compound; for viability, T/C: stronger effect = lower value
From the text: RAS pathway inhibitors in Combinations in Complex Spheroids
A high-throughput screen of multi-cell type tumor spheroids was designed to identify active combinations of RAS pathway inhibitors and targeted small molecules. Complex spheroids include a stromal component modeled by human endothelial cells (HUVEC) and fibroblasts modeled by human mesenchymal stem cells (MSCs). The concentration ranges selected for each drug and investigational agent were based upon clinically achievable concentrations if the clinical Cmax of the agent was known.
Compounds. The drugs and investigational agents: abemaciclib (NSC768073), cobimetinib (NSC768068), divarasib (GDC6063, NSC841802), docetaxel (NSC628503), GDC-1971 (RLY-1971, NSC841576), gemcitabine (NSC613327), inavolisib (NSC800729), ipatasertib (NSC767898), KB-0742 (NSC834161), MRTX-1133 (NSC836407), osimertinib (NSC779217), RMC-4630 (NSC839698), RMC-6236 (NSC851965), RMC-6291 (NSC852671), Ro-3306 (NSC812927), sapanisertib (NSC764658), SN-38 (NSC673596), staurosporine (NSC755774), SY5609 (NSC837396), and tovorafenib (DAY101, NSC766906), were obtained from the National Cancer Institute (NCI) Developmental Therapeutics Program Chemical Repository. The FDA-approved anticancer drug set is available from the NCI Developmental Therapeutics Program. […] The stock solutions were prepared in dimethyl sulfoxide (DMSO, Sigma-Aldrich, St. Louis, MO, cat. D2650) at 800-fold the tested concentration and stored at -70 degrees C prior to their use. All drugs and investigational agents were tested over a range starting from a high concentration at or near the clinical Cmax and decreasing in half-log increments. If the clinical Cmax for an agent had not been determined, the highest concentration tested was 10 microM.
Cell Culture. All cells were maintained in an incubator at 37 degrees C and 5% CO2 with 95% humidity. The PDC lines were cultured according to standard operating procedures established by the NCI PDMR. All PDCs were thawed and cultured in Matrigel-coated flasks prepared with a working solution of 1X Ham's F-12 nutrient mix, without supplementation (Invitrogen, Waltham, MA, cat. 11765054), 100 U/mL penicillin-streptomycin (Invitrogen, cat. 15140122), and 2.5% Matrigel (Corning Inc., Corning, NY, cat. 354248) for the first three passages. The 362531-283-R-J2-PDC and 782815-120-R-J1-PDC lines were cultured in 6C/Colon 1B media, which includes advanced DMEM/F-12 (Thermo Fisher Scientific, cat. 12634028), 10 mM HEPES (Thermo Fisher Scientific, cat. 15630080), 1X GlutaMAX supplement (Thermo Fisher Scientific, cat. 35050061), 0.1 mg/mL primocin (InvivoGen, San Diego, CA, cat. ant-pm-2), 10% defined fetal bovine serum, heat inactivated (HyClone Laboratories Inc., Logan, UT, cat. SH30070.03HI), 50% L-WRN conditioned media (ATCC, cat. CRL-3276), 1.25 mM N-Acetyl-L-cysteine (Sigma-Aldrich, cat. A9165), 10 mM nicotinamide (Sigma-Aldrich, cat. N0636), 1X B-27 supplement (Thermo Fisher Scientific, cat. 17504044), 1X N-2 supplement (Thermo Fisher Scientific, cat. 17502048), 50 ng/mL human EGF (Thermo Fisher Scientific, cat. PHG0311), and 10 microM Y-27632 dihydrochloride (Tocris Bioscience, cat. 1254). The K12877-001-R-J1-PDC line was cultured in 6I media, which includes all 6C/Colon 1B media plus 10 ng/mL human FGF-10 (PeproTech, cat. 100-26), 1 ng/mL human FGF-2 (PeproTech, cat. 100-18B), 1 µM prostaglandin E2 (Tocris Bioscience, cat. 2296), […] hydrocortisone (Sigma-Aldrich, cat. H4001), and […] bovine insulin (Sigma-Aldrich, cat. I6634). The K86415-001-R-J1-PDC line was cultured in 6D media, which includes all 6C/Colon 1B media components minus the L-WRN conditioned media. The 485176-168-R4-J1-PDC was cultured in PANC media, which includes all 6C/Colon 1B media plus 100 ng/mL human FGF-10 (PeproTech, cat. 100-26), 500 nM SB-431542 (Selleckchem, cat. S1067), and 10 nM gastrin (Tocris Bioscience, cat. 3006). […]

[1] = second compound 0.0316 µM, first compound 0.0316 µM
[2] = second compound 0.0316 µM, first compound 0.1 µM
[3] = second compound 0.0316 µM, first compound 0.316 µM
[4] = second compound 0.0316 µM, first compound 1 µM
[5] = second compound 0.1 µM, first compound 0.0316 µM
[6] = second compound 0.1 µM, first compound 0.1 µM
[7] = second compound 0.1 µM, first compound 0.316 µM
[8] = second compound 0.1 µM, first compound 1 µM
[9] = second compound 0.316 µM, first compound 0.0316 µM
[10] = second compound 0.316 µM, first compound 0.1 µM
[11] = second compound 0.316 µM, first compound 0.316 µM
[12] = second compound 0.316 µM, first compound 1 µM
[13] = second compound 1 µM, first compound 0.0316 µM
[14] = second compound 1 µM, first compound 0.1 µM
[15] = second compound 1 µM, first compound 0.316 µM
[16] = second compound 1 µM, first compound 1 µM
[17] = second compound 3.16 µM, first compound 0.0316 µM
[18] = second compound 3.16 µM, first compound 0.1 µM
[19] = second compound 3.16 µM, first compound 0.316 µM
[20] = second compound 3.16 µM, first compound 1 µM
[21] = second compound 10 µM, first compound 0.0316 µM
[22] = second compound 10 µM, first compound 0.1 µM
[23] = second compound 10 µM, first compound 0.316 µM
[24] = second compound 10 µM, first compound 1 µM
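Note: spheroids exposed to agents for seven days before the viability readout.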
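Throughout, for viability, T/C: luminescence used as a proxy for viable cell amount.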

## CC(Nc1ccc2c(c1)OCCn1cc(N3C(=O)OCC3C(F)F)nc1-2)C(N)=O (centres undefined) + C#Cc1c(F)ccc2cc(O)cc(-c3ncc4c(N5CC6CCC(C5)N6)nc(OCC56CCCN5CC(F)C6)nc4c3F)c12
Second compound 0.0316 µM
  pIC50: < 5.00
Second compound 0.1 µM
  pIC50: < 5.00
Second compound 0.316 µM
  pIC50: < 5.00
Second compound 1 µM
  pIC50: < 5.00
Second compound 3.16 µM
  pIC50: < 5.00
Second compound 10 µM
  pIC50: < 5.00
[1]
  viability, T/C: 105%
[2]
  viability, T/C: 94.6%
[3]
  viability, T/C: 95.1%
[4]
  viability, T/C: 94.4%
Second compound 0.0316 µM, first compound 3.16 µM
  viability, T/C: 83.6%
Second compound 0.0316 µM, first compound 10 µM
  viability, T/C: 73.8%
[5]
  viability, T/C: 102%
[6]
  viability, T/C: 98.1%
[7]
  viability, T/C: 88.3%
[8]
  viability, T/C: 95.1%
Second compound 0.1 µM, first compound 3.16 µM
  viability, T/C: 83%
Second compound 0.1 µM, first compound 10 µM
  viability, T/C: 70.4%
[9]
  viability, T/C: 114%
[10]
  viability, T/C: 98.1%
[11]
  viability, T/C: 95.7%
[12]
  viability, T/C: 91.1%
Second compound 0.316 µM, first compound 3.16 µM
  viability, T/C: 84.3%
Second compound 0.316 µM, first compound 10 µM
  viability, T/C: 72.1%
[13]
  viability, T/C: 102%
[14]
  viability, T/C: 103%
[15]
  viability, T/C: 94.8%
[16]
  viability, T/C: 84%
Second compound 1 µM, first compound 3.16 µM
  viability, T/C: 81.8%
Second compound 1 µM, first compound 10 µM
  viability, T/C: 64.3%
[17]
  viability, T/C: 89.8%
[18]
  viability, T/C: 93.3%
[19]
  viability, T/C: 88.4%
[20]
  viability, T/C: 74.2%
Second compound 3.16 µM, first compound 3.16 µM
  viability, T/C: 72.5%
Second compound 3.16 µM, first compound 10 µM
  viability, T/C: 68.4%
[21]
  viability, T/C: 80.5%
[22]
  viability, T/C: 83.5%
[23]
  viability, T/C: 82.2%
[24]
  viability, T/C: 68.1%
Second compound 10 µM, first compound 3.16 µM
  viability, T/C: 64.8%
Second compound 10 µM, first compound 10 µM
  viability, T/C: 57.3%

## O=C(c1ccc(F)c(F)c1Nc1ccc(I)cc1F)N1CC(O)([C@@H]2CCCCN2)C1 + C#Cc1c(F)ccc2cc(O)cc(-c3ncc4c(N5CC6CCC(C5)N6)nc(OCC56CCCN5CC(F)C6)nc4c3F)c12
Second compound 0.0316 µM
  pIC50: 6.73
Second compound 0.1 µM
  pIC50: 6.73
Second compound 0.316 µM
  pIC50: 6.77
Second compound 1 µM
  pIC50: 6.77
Second compound 3.16 µM
  pIC50: 6.80
Second compound 10 µM
  pIC50: 6.90
Second compound 0.0316 µM, first compound 0.00316 µM
  viability, T/C: 108%
Second compound 0.0316 µM, first compound 0.01 µM
  viability, T/C: 105%
[1]
  viability, T/C: 90.7%
[2]
  viability, T/C: 87.1%
[3]
  viability, T/C: 19.3%
[4]
  viability, T/C: 3.6%
Second compound 0.1 µM, first compound 0.00316 µM
  viability, T/C: 113%
Second compound 0.1 µM, first compound 0.01 µM
  viability, T/C: 100%
[5]
  viability, T/C: 107%
[6]
  viability, T/C: 84.3%
[7]
  viability, T/C: 20.2%
[8]
  viability, T/C: 4.03%
Second compound 0.316 µM, first compound 0.00316 µM
  viability, T/C: 109%
Second compound 0.316 µM, first compound 0.01 µM
  viability, T/C: 106%
[9]
  viability, T/C: 95.6%
[10]
  viability, T/C: 77.7%
[11]
  viability, T/C: 18.3%
[12]
  viability, T/C: 4.22%
Second compound 1 µM, first compound 0.00316 µM
  viability, T/C: 105%
Second compound 1 µM, first compound 0.01 µM
  viability, T/C: 99.8%
[13]
  viability, T/C: 93.2%
[14]
  viability, T/C: 77.3%
[15]
  viability, T/C: 19.3%
[16]
  viability, T/C: 3.49%
Second compound 3.16 µM, first compound 0.00316 µM
  viability, T/C: 97%
Second compound 3.16 µM, first compound 0.01 µM
  viability, T/C: 89.7%
[17]
  viability, T/C: 91.3%
[18]
  viability, T/C: 73.1%
[19]
  viability, T/C: 15.6%
[20]
  viability, T/C: 4.86%
Second compound 10 µM, first compound 0.00316 µM
  viability, T/C: 86%
Second compound 10 µM, first compound 0.01 µM
  viability, T/C: 82.1%
[21]
  viability, T/C: 70.5%
[22]
  viability, T/C: 60.7%
[23]
  viability, T/C: 12.1%
[24]
  viability, T/C: 3.34%
